Drawing on the NIST ThermoML archive (doi:10.1021/acs.jced.6b00048), this text covers mass density for one molecule.

Numbers after ± are expanded uncertainties.

A short description of this data set: wn = mass fraction of the nth substance listed. The conditions noted are these: 100 kPa, Liquid, Vibrating tube method, w1 = 0.5821.

For orientation: mass density means mass per unit of volume. For the molecule `[Cl-].[Cl-].[Zn+2]` [zinc chloride] + O, the mass density turned out to be 1702.7 ± 6.9 kg/m3 (288.15 K), 1692.5 ± 6.9 kg/m3 (298.15 K) and 1666.6 ± 6.7 kg/m3 (323.15 K).
